In patent US20060063755A1, “Loxapine analogs and methods of use thereof” (priority 2004, published 2006):

Key:
H1 histamine receptor = target: T1, H1 histamine receptor (Bos taurus, UniProt P30546); experiment: H1 competitive binding assay, [3H]pyrilamine, bovine cerebellar membranes; conditions: bovine cerebellar membrane
T1 construct: the receptors were obtained from bovine cerebellar membrane tissue; from tissue; host or cells: bovine cerebellar membranes

M3 muscarinic receptor = target: T2, M3 muscarinic receptor (Homo sapiens, UniProt P20309); experiment: M3 binding assay, [3H]-scopolamine N-methyl chloride, CHO cells; conditions: human recombinant
T2 construct: purchased PerkinElmer, Inc., Wellesley, Mass; host or cells: CHO cells
T2 sequence (P20309 whole entry): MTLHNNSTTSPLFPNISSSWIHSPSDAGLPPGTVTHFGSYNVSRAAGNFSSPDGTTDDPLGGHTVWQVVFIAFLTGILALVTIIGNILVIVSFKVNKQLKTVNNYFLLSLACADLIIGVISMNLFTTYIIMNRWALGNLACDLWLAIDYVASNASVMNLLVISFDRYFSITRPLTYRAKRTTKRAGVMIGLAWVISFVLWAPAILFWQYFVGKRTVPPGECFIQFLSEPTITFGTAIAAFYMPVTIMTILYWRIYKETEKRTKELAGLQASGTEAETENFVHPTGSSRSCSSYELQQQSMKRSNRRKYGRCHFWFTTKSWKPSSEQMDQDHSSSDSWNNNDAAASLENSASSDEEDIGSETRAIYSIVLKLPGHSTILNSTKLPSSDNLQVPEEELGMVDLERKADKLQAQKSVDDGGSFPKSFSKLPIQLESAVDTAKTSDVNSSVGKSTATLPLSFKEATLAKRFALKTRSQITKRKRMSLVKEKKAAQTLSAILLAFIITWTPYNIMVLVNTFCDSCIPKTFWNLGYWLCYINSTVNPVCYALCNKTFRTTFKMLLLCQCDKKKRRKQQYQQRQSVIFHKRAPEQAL

M2 muscarinic receptor = target: T3, M2 muscarinic receptor (Homo sapiens, UniProt P08172); experiment: M2 binding assay, [3H]-scopolamine N-methyl chloride, CHO cells; conditions: human recombinant
T3 construct: purchased PerkinElmer, Inc., Wellesley, Mass; host or cells: CHO cells
T3 sequence (P08172 1-466): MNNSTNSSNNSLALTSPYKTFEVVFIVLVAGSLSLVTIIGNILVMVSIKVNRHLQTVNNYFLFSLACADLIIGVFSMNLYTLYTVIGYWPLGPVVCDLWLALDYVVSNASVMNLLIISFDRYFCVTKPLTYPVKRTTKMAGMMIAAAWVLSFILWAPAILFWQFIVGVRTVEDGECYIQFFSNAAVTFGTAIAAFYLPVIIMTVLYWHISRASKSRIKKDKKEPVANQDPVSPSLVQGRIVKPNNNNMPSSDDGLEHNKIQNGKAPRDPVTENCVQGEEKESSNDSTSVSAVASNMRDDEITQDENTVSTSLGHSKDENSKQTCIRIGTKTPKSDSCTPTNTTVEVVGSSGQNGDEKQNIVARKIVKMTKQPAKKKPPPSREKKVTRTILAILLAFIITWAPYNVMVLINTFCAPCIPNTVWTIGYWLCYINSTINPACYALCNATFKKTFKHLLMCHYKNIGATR

hERG channel = hERG channel (Homo sapiens, UniProt Q12809); experiment: hERG channel current block, whole cell recording in HEK293 cells; assay type: cell-based; conditions: HEK293 cells expressing hERG
Sequence of hERG channel (Q12809 whole entry): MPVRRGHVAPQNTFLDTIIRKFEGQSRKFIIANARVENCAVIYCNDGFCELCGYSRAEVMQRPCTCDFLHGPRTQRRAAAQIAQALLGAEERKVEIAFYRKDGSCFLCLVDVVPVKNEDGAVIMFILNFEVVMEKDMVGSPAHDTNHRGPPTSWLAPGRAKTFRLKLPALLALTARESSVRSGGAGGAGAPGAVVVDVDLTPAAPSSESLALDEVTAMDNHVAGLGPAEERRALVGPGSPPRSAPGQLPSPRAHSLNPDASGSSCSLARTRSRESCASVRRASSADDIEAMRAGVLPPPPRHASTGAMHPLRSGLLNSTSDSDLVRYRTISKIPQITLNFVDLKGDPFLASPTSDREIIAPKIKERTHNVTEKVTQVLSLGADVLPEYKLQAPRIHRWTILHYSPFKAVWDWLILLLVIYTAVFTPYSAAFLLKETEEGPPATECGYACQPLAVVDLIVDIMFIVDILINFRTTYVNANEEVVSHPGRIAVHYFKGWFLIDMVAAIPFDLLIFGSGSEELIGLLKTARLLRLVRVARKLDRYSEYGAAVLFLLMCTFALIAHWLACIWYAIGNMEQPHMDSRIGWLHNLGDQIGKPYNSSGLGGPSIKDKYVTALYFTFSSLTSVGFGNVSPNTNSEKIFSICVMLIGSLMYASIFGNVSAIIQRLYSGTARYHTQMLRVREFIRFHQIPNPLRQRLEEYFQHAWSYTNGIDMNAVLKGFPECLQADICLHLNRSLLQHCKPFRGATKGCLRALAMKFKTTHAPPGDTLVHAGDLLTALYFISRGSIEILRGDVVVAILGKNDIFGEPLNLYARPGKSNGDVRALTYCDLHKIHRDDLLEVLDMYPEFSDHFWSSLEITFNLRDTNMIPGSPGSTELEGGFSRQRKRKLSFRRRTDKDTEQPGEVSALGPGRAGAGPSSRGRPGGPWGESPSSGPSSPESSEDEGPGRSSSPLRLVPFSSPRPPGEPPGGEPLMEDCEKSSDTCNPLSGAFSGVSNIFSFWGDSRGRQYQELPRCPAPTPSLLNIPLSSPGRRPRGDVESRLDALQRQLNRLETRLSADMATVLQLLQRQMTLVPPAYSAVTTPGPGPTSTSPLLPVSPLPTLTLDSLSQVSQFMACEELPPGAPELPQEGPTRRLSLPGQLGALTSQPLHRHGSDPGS
Experimental: Other in vitro selection criteria for loxapine analogs of the invention includes hERG binding.
(Brown and Rampe (2000)).
In one embodiment of the HERG assay, the positive control (i.e., reference compound) is terfenadine (Sigma, St. Louis Mo.), which has been shown, at a concentration of 60 nM, to block HERG current by approximately 75%. Test compounds are delivered in HEPES-buffered physiological saline (HB-PS)+0.1% dimethyl sulfoxide (DMSO).
Clin. Exp. Allergy 29 Suppl 3, 174-181.
If the final DMSO concentration must be greater than 0.3%, to reach a specified test article concentration, a separate vehicle control test with an n>2 was performed at the highest final DMSO concentration.
Each cell acted as its own control. […] One concentration of the positive control article (60 nM terfenadine) was applied to two cells (n≧2).

alpha 2 receptors = experiment: Alpha 2 receptor binding assay; conditions: read-out: Ki Alpha2
Experimental: (§1) Binding assays were performed using the disclosed sleep-inducing agents and derivatives selected from those listed in Table 1 in competitive binding assays with known standards for the H1 histamine receptor, and the M1, M2, and M3 muscarinic receptors, alpha 1 and alpha 2 receptors, and D1 and D2 receptors.

alpha 1 receptors = experiment: Alpha 1 receptor binding assay; conditions: read-out: Ki Alpha1
Experimental: as §1

M1 muscarinic receptor = target: T4, M1 muscarinic receptor (Homo sapiens, UniProt P11229); experiment: M1 binding assay, [3H]-scopolamine N-methyl chloride, CHO cells; conditions: human recombinant
T4 construct: purchased PerkinElmer, Inc., Wellesley, Mass; host or cells: CHO cells
T4 sequence (P11229 1-460): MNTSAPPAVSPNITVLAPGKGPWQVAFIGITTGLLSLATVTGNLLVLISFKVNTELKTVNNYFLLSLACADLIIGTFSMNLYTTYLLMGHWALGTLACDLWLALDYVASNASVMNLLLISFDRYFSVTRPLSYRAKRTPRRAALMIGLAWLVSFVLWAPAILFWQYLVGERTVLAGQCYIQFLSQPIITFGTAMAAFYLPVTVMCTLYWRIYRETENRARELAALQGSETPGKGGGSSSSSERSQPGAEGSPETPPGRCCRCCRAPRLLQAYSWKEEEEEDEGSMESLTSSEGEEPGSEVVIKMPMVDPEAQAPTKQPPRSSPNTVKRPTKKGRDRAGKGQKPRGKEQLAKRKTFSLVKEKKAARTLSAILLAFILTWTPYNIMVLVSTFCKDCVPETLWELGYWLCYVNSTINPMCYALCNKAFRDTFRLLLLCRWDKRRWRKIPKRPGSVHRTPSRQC

D2 receptors = D2 receptors (Homo sapiens, UniProt P14416); experiment: Dopamine D2 binding assay (human)
Sequence of D2 receptors (P14416 whole entry): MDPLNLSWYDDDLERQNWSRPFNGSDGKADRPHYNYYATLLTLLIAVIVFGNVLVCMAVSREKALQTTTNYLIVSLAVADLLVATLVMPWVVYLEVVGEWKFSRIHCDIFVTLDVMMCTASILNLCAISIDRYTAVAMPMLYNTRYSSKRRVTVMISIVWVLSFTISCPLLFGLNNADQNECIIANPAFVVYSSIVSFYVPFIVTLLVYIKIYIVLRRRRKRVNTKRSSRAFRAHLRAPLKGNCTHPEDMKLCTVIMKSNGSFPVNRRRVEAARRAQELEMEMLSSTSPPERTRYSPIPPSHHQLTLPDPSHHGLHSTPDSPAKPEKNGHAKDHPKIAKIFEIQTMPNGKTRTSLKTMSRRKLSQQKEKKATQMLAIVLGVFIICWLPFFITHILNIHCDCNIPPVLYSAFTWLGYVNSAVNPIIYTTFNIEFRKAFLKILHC
Experimental: Binding assays were performed using the disclosed sleep-inducing agents and derivatives selected from those listed in Table 1 in competitive binding assays with known standards for the H1 histamine receptor, and the M1, M2, and M3 muscarinic receptors, alpha 1 and alpha 2 receptors, and D1 and D2 receptors. […]

Dopamine, D1 = Dopamine, D1 (Homo sapiens, UniProt P21728); experiment: Dopamine D1 (human recombinant) binding assay
Sequence of Dopamine, D1 (P21728 whole entry): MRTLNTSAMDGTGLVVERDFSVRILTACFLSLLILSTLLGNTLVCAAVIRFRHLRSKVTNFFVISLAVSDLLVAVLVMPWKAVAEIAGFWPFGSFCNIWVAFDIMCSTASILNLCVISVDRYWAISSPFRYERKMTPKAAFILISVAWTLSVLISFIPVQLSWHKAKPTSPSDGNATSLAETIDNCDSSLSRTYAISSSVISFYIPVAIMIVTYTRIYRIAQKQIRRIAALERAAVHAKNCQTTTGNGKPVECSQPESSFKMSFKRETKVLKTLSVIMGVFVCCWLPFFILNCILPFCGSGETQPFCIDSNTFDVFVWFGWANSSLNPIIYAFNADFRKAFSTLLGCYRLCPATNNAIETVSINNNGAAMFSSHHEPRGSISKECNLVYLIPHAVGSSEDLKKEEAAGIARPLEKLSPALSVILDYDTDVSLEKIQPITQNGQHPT
Experimental: as §1
Dopamine, D1 (human recombinant) binding assay was performed according to published procedures. See, e.g., Jarvie, et al. J. Recept Res., 13(1-4): 573-90 (1993); and Billard, et al. Life Sciences, 35(18): 1885-93 (1984), with modifications

T1 sequence (P30546 whole entry): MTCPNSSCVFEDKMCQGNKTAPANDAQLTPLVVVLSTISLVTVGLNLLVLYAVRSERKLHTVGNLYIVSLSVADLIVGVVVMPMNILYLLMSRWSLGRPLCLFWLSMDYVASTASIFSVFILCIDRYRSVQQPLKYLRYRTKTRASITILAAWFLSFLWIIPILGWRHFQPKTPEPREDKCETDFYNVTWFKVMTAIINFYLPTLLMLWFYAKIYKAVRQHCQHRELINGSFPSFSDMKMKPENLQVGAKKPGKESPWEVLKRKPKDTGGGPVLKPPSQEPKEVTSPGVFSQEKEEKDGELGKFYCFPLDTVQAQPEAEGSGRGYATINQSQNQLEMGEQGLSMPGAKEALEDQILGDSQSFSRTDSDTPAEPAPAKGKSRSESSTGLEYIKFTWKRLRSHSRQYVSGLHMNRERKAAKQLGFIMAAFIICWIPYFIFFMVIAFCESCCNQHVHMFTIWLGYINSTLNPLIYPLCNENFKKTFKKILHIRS

| Structure (SMILES) | Ki (H1 histamine receptor) [µM] | Ki (M3 muscarinic receptor) [µM] | Ki (M2 muscarinic receptor) [µM] | hERG at 10 micromolar (% blocking of the hERG channel) (hERG channel) [%] | Ki (alpha 2 receptors) [µM] | Ki (alpha 1 receptors) [µM] | Ki (M1 muscarinic receptor) [µM] | Ki (D2 receptors) [µM] | Ki (Dopamine, D1) [µM] |
| --- | --- | --- | --- | --- | --- | --- | --- | --- | --- |
| O=C(O)C1(CN2CCN(C3=Nc4ccccc4Oc4ccccc43)CC2)CC1 [Compound 2] | 0.0514 | > 10 | > 10 | 19 | > 10 | > 10 | > 10 | > 10 | > 10 |
| CC(C)(CCN1CCN(C2=Nc3ccccc3Oc3ccccc32)CC1)C(=O)O [Compound 3] | 0.00733 | > 10 | > 10 | 3.8 | > 10 | > 10 | > 10 | 1.19 | 4.92 |
| CC(C)(CN1CCN(C2=Nc3ccccc3Oc3ccc(Cl)cc32)CC1)C(=O)O [Compound 5] | 0.0239 | > 10 | > 10 | 36 | > 10 | 3.02 | > 10 | 1.61 | 4.52 |
| O=C(O)C1(CN2CCN(C3=Nc4ccccc4Oc4ccc(Cl)cc43)CC2)CC1 [Compound 7] | 0.217 | > 10 | > 10 | 42.8 | > 10 | > 10 | > 10 | 0.222 | 1.73 |
| CC(C)(CN1CCN(C2=Nc3ccccc3Oc3ccc(Br)cc32)CC1)C(=O)O [Compound 8] | 0.0117 | > 10 | > 10 | 49 | > 10 | > 10 | > 10 | 0.434 | 3.35 |
| O=C(O)C1(CN2CCN(C3=Nc4ccccc4Oc4ccc(Br)cc43)CC2)CC1 [Compound 9] | 0.036 | > 10 | > 10 | 59 | > 10 | > 10 | > 10 | 0.0533 | 1.12 |
| Cc1ccc2c(c1)C(N1CCN(CC(C)(C)C(=O)O)CC1)=Nc1ccccc1O2 [Compound 10] | 0.0396 | > 10 | > 10 | 14 | > 10 | > 10 | > 10 | 1.67 | 3.16 |
| COc1ccc2c(c1)C(N1CCN(CC(C)(C)C(=O)O)CC1)=Nc1ccccc1O2 [Compound 12] | 0.137 | > 10 | > 10 | 7.20 | > 10 | > 10 | > 10 | 1.24 | 5.22 |
| CC(C)(CN1CCN(C2=Nc3ccccc3Oc3ccc(O)cc32)CC1)C(=O)O [Compound 14] | 0.283 | > 10 | > 10 | 0.30 | > 10 | > 10 | > 10 | > 10 | 0.942 |
| CC(C)(CN1CCN(C2=Nc3cc(Br)ccc3Oc3ccccc32)CC1)C(=O)O [Compound 17] | 0.012 | > 10 | > 10 | 30.10 |  | 1.99 | > 10 | 0.883 | 3.45 |
| Cc1ccc2c(c1)N=C(N1CCN(CC(C)(C)C(=O)O)CC1)c1ccccc1O2 [Compound 19] | 0.0395 | > 10 | > 10 | 9.90 | > 10 | > 10 | > 10 | 3.16 | 6.8 |
| Cc1ccc2c(c1)N=C(N1CCN(CC(C)(C)C(=O)O)CC1)c1cc(C)ccc1O2 [Compound 20] | 0.0768 | > 10 | > 10 | 5.30 | > 10 | 1.96 | > 10 | 1.59 | 1.93 |
| Cc1ccc2c(c1)N=C(N1CCN(CC(C)(C)C(=O)O)CC1)c1ccc(C)cc1O2 [Compound 52] | 0.0554 | > 10 | > 10 | 19.80 | > 10 | > 10 | > 10 | > 10 |  |
| COc1ccc2c(c1)C(N1CCN(CC(C)(C)C(=O)O)CC1)=Nc1cc(C)ccc1O2 [Compound 54] | 0.0404 |  | > 10 | 6.10 | 5.82 | 1.21 | > 10 | 1.08 | 4.97 |
| COc1ccc2c(c1)C(N1CCN(CC(C)(C)C(=O)O)CC1)=Nc1ccc(C)cc1O2 [Compound 58] |  | > 10 | > 10 | 0.20 | > 10 | > 10 | > 10 | 4.03 | 2 |
